# Assay results as given in US11613547B2 (priority 2019, dated 2023).
# “And” between values parts separate entries of the source, which are not always exact repeats. Equal entries are not always repeated. “Also recorded” adds a separate entry of the source.
# Key:
# mDOR [1] = molecular target: T1, mDOR (Mus musculus, UniProt P32300); assay: Radioligand competition binding ([125I]IBNtxA), CHO membranes, mDOR
# T1 construct: expressed in transfected cells
# mMOR = molecular target: T2, mMOR (Mus musculus, UniProt P42866); assay: [35S]GTPγS functional assay, mMOR; format: biochemical
# T2 construct: expressed in transfected cells
# mKOR = molecular target: T3, mKOR (Mus musculus, UniProt P33534); assay: [35S]GTPγS functional assay, mKOR; format: biochemical
# T3 construct: expressed in transfected cells
# mDOR [2] = molecular target: T1, mDOR; assay: [35S]GTPγS functional assay, mDOR; format: biochemical
# hMOR [3] = molecular target: T4, hMOR (Homo sapiens, UniProt P35372); assay: cell-based; format: cell-based
# T4 construct: expressed in transfected cells; host or cells: HEK 293T (ATCC CRL-11268), transient
# hMOR [4] = molecular target: T4, hMOR; assay: Tango β-arrestin recruitment assay, hMOR; format: cell-based; settings: Tango
# hKOR [5] = molecular target: T5, hKOR (Homo sapiens, UniProt P41145); assay: cAMP inhibition assay (GloSensor, HEK 293T), hKOR; format: cell-based
# T5 construct: expressed in transfected cells; host or cells: HEK 293T (ATCC CRL-11268), transient
# hKOR [6] = molecular target: T5, hKOR; assay: Tango β-arrestin recruitment assay, hKOR; format: cell-based
# [7] = molecular target: T6, mouse mu opioid receptor (mMOR) (Mus musculus, UniProt P42866); assay: cell-based; format: cell-based
# T6 construct: expressed in transfected cells; host or cells: HEK-293T, transient (PEI), with BRET sensor cDNAs
# [8] = molecular target: T6, mouse mu opioid receptor (mMOR); assay: cell-based; format: cell-based; remark: listed apart in the source
# [9] = molecular target: T7, rat kappa opioid receptor (rKOR) (Rattus norvegicus, UniProt P34975); assay: BRET assay, G-protein activation, rKOR; format: cell-based
# T7 construct: expressed in transfected cells; host or cells: HEK-293T, transient (PEI), with BRET sensor cDNAs
# [10] = molecular target: T7, rat kappa opioid receptor (rKOR); assay: BRET assay, arrestin recruitment, rKOR; format: cell-based; settings: BRET
# [11] = molecular target: T8, mouse delta opioid receptor (mDOR) (Mus musculus, UniProt P32300); assay: BRET assay, G-protein activation, mDOR; format: cell-based
# T8 construct: expressed in transfected cells; host or cells: HEK-293T, transient (PEI), with BRET sensor cDNAs
# C57BL/6J mice [12] = assay: 55° C. warm-water tail-withdrawal assay; format: in vivo, mouse; settings: icv, 55° C. tail withdrawal
# Procedure: (§1) Tail-withdrawal assay The 55° C. warm-water tail-withdrawal assay was conducted in mice as a measure of acute thermal antinociception as described previously (Reilley et al., 2010). Briefly, each mouse was tested for baseline tail-withdrawal latency prior to drug administration. Following drug administration, the latency for each mouse to withdraw the tail was measured every 10 minutes until latency returned to the baseline value. A maximum response time of 15 seconds was utilized to prevent tissue damage. […] Data are reported as percent antinociception, calculated by the equation: % antinociception=100×[(test latency−baseline latency)/(15−baseline latency)]. This was utilized to account for innate variability between mice. Compounds were administered either, […] (IP) or intracerebroventricular (icv) and the analgesic action of compounds was assessed at the peak effect as described previously (Haley and McCormick, 1957). In brief, mice were anesthetized using isoflurane. A small incision was made, and the drug (2 μl/mouse) was injected (using a 10 μL Hamilton syringe fitted to a 27-gauge needle) into the right lateral ventricle at the following coordinates: 2 mm caudal to bregma, 2 mm lateral to sagittal suture, and 2 mm in depth. Mice were tested for analgesia at the peak effect post injection.
# [13] = tested on: MOR KO, KOR KO, DOR KO mice; assay: Tail-withdrawal antinociception in opioid receptor knock out mice; format: in vivo, mouse; settings: 30 nmol icv, relative to WT
# Procedure: as §1
# 330 non-olfactory GPCRs = assay: PRESTO-Tango GPCRome β-arrestin recruitment screen; format: cell-based; settings: 3 μM
# Procedure: Assessment of off-target activity of MP1207 using PRESTO-Tango GPCR-ome To identify potential off-target activity of MP1207, the National Institutes of Mental Health Psychoactive Drug Screen Program were used. MP1207 was first tested for activity against 330 non-olfactory GPCRs using the PRESTO-Tango GPCRome screening β-arrestin recruitment assay at 3 μM MP1207. The activity at each receptor was measured in quadruplicate.
# Screening of compounds was accomplished using previously described methods with several modifications (www.ncbi.nlm.nih.gov/pmc/articles/PMC4424118/). First, HTLA cells were plated in DMEM with 2% dialyzed FBS and 10 U/mL penicillin-streptomycin. Next, the cells were transfected using an in-plate PEI method (www.ncbi.nlm.nih.gov/pmc/articles/PMC4012321/). PRESTO-Tango receptor DNAs were resuspended in OptiMEM and hybridized with PEI prior to dilution and distribution into 384-well plates and subsequent addition to cells. After overnight incubation, drugs diluted in DMEM with 1% dialyzed FBS were added to cells without replacement of the medium. The remaining steps of the PRESTO-Tango protocol were followed as previously described.
# C57 mice = assay: Respiratory rate (CLAMS)
# C57/B6 mice = assay: Locomotor effect (CLAMS); settings: 30 or 100 nmol icv
# hDOR [14] = molecular target: T9, hDOR (Homo sapiens, UniProt P41143); assay: cAMP inhibition assay, hDOR; format: cell-based; set-up: expressed in transfected cells
# Y312W-hKOR [15] = molecular target: T10, Y312W-hKOR (Homo sapiens, UniProt P41145, Y312W); assay: Tango-arrestin recruitment assay, Y312W-hKOR mutant; format: cell-based; set-up: expressed in transfected cells; settings: Tango, compared with wild-type KOR
# C57BL/6J mice [16] = assay: Conditioned place preference and aversion; settings: MP1207 100 nmol icv, morphine 10 mg/kg IP, U50,488h 30 mg/kg IP
# hDOR [17] = molecular target: T9, hDOR; assay: Tango β-arrestin recruitment assay, hDOR; format: cell-based; set-up: expressed in transfected cells; host or cells: HTLA cells expressing TEV fused-beta-Arrestin2
# Y312W-hKOR [18] = molecular target: T10, Y312W-hKOR; assay: cAMP inhibition assay, Y312W-hKOR mutant; format: cell-based; set-up: expressed in transfected cells; host or cells: HEK 293T (inferred from the general cAMP method)
# T9 sequence (P41143 whole entry): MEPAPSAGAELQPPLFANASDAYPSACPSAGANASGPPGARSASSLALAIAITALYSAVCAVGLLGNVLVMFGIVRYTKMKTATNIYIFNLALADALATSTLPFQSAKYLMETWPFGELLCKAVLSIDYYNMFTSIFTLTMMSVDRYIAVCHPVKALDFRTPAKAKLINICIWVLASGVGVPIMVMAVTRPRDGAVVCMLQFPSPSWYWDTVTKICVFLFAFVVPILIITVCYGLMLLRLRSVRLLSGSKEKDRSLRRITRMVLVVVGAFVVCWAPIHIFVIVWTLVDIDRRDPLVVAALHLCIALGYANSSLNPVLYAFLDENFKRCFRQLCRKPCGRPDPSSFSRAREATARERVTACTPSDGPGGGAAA
# T6 sequence (P42866 whole entry): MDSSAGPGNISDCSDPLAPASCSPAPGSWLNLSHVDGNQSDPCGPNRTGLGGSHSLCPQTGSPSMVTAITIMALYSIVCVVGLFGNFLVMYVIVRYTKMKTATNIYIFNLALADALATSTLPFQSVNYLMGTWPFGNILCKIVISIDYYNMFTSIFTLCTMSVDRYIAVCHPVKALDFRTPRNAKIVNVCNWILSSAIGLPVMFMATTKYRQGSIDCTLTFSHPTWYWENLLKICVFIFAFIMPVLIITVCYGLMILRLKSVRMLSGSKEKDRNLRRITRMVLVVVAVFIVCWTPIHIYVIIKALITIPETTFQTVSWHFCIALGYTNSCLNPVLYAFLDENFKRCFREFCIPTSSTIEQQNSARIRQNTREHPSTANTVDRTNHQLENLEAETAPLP
# T1 sequence (P32300 whole entry): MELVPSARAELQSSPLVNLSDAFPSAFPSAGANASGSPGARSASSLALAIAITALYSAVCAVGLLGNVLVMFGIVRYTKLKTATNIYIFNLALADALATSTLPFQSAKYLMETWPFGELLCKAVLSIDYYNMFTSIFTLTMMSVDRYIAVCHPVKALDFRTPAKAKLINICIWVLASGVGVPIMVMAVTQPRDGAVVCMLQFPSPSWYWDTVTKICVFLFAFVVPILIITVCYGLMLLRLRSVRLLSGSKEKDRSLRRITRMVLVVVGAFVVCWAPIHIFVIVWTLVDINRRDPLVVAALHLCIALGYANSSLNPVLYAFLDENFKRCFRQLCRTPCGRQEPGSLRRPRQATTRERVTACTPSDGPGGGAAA
# T4 sequence (P35372 whole entry): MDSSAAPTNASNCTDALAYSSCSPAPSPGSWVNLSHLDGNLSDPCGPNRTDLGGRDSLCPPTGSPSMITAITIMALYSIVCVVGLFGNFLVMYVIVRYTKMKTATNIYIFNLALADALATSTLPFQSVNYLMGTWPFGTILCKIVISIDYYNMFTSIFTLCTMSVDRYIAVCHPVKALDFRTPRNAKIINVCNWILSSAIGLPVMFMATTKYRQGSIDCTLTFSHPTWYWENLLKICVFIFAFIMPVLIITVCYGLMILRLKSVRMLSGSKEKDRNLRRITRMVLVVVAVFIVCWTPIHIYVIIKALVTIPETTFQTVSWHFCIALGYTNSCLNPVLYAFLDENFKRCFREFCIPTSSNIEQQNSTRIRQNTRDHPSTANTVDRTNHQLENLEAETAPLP
# T7 sequence (P34975 whole entry): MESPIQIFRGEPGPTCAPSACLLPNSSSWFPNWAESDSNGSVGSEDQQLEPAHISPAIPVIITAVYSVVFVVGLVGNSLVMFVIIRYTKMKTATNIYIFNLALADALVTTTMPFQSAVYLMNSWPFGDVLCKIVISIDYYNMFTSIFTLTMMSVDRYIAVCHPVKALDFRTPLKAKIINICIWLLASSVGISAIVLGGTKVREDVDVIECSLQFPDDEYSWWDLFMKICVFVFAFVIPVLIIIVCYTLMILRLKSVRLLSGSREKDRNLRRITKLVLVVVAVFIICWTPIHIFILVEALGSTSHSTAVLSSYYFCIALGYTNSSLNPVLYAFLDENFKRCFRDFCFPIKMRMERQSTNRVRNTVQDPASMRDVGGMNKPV
# T10 sequence (P41145 whole entry Y312W): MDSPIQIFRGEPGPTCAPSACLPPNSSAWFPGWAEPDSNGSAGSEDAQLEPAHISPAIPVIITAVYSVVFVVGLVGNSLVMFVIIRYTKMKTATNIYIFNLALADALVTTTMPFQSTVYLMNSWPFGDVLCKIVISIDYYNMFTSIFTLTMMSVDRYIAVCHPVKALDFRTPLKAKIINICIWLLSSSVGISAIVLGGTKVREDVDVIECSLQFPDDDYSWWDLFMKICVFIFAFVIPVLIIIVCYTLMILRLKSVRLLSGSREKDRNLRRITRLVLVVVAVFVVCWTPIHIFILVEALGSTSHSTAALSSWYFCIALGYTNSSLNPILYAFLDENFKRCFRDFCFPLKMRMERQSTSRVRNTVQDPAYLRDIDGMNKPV
# T5 sequence (P41145 whole entry): as the sequence (P41145 whole entry Y312W) above, with W312Y counted along it
# T8 sequence (P32300 whole entry): as the sequence (P32300 whole entry) above
# T2 sequence (P42866 whole entry): as the sequence (P42866 whole entry) above
# T3 sequence (P33534 whole entry): as the sequence (P34975 whole entry) above, with E11D, A17S, P51S, V308A counted along it
structure (smiles),measurement,setting,value
"NCc1cccc(C(=O)NC2CCC3C4Cc5ccc(O)c6c5C3(CCN4CC3CC3)C2O6)c1 [MP1207, 3-(Aminomethyl)-N-((7R,726S)-3-(cyclopropylmethyl)-9-hydroxy-2,3,4,4a,5,6,7,7a-octahydro-1H-4,12-methanobenzofuro[3,2-e]isoquinolin-7-yl)benzamide]",selectivity of MOR and KOR over DOR in the binding assays,mDOR [1],> 40 fold
same,Emax,mMOR,41 ± 1%
same,Emax,mKOR,39.3 ± 1.3%
same,Emax,mDOR [2],10 to 15%
same,efficacy at mDOR,mDOR [2]; [35S]GTPγS,only weak efficacy
same,EC50,hMOR [3],0.0339 nM
same,Emax,"hMOR [3]; HEK-293T, read-out: Gi Emax hMOR",33 ± 1.4%
same,arrestin recruitment at hMOR,hMOR [4],no recruitment of arrestin was seen; also recorded: no arrestin recruitment was observed
same,Emax,"hKOR [5]; HEK-293T, read-out: Gi Emax hKOR",90 ± 1.7%
same,"Bias factor toward G protein, hKOR","hKOR [5]; cAMP inhibition vs Tango, against U50,488H as control",8
same,Emax,hKOR [6],37 ± 2%
same,EC50,"hKOR [6]; Tango, WT-hKOR",3.97 nM
same,EC50,[7],3.61 nM
same,Emax,[7]; read-out: Gi Emax mMOR,42 ± 2.6%
same,arrestin recruitment at mMOR,[8],no recruitment of βarrestin-2; also recorded: no arrestin recruitment was observed
same,EC50,"[9]; BRET, read-out: Gi EC50 rKOR",1.13 nM
same,Emax,[9]; read-out: Gi Emax rKOR,32 ± 2.3%
same,arrestin recruitment at rKOR,[10],no recruitment of βarrestin-2; also recorded: no arrestin recruitment was observed
same,EC50,"[11]; mDOR, BRET",116 nM
same,Emax,[11]; read-out: G-Protein activation Emax % ± SEM,52 ± 2.3%
same,antinociceptive ED50 (95% CI),C57BL/6J mice [12],6.1 (4.1-8.9) nmol and 6.1 nmol
same,antinociception in DOR KO mice,[13],remained intact
same,antinociception in KOR KO mice,[13],significantly attenuated
same,antinociception in MOR KO mice,[13],significantly attenuated
same,selectivity for opioid receptors in GPCRome screen,330 non-olfactory GPCRs; agonism in arrestin recruitment TANGO assay,reasonable selectivity for opioid receptors over 330 GPCRs; also recorded: selectivity for opioid receptors over non-opioid targets
same,increase in signal over basal at opioid receptors,"330 non-olfactory GPCRs; predominantly at KOR and DOR, much less at MOR",2 fold over basal
same,respiratory rate,C57 mice; 30 nmol icv,stimulated respiration; also recorded: an increase in the respiratory rate
same,respiratory rate,C57 mice; 100 nmol icv,still stimulated respiration; also recorded: slight right shift of effect
same,locomotor effect,C57/B6 mice,stimulated locomotor activity; also recorded: increase in the forward locomotory effect
same,EC50,hDOR [14]; hDOR,11.4 nM
same,Emax,hDOR [14]; read-out: cAMP inhibition Emax % ± SEM,38 ± 2%
same,arrestin recruitment at Y312W-hKOR,Y312W-hKOR [15],further reduction of arrestin recruitment; also recorded: reduced arrestin measurement
same,conditioned place preference or aversion (CPP/CPA),C57BL/6J mice [16],"failed to show either rewarding or aversive behavior; also recorded: did not display GPP seen with morphine or CPA behavior seen with U50, 488h"
same,EC50,"hDOR [17]; hDOR, Tango",64.1 nM
same,Emax,hDOR [17]; read-out: Arrestin recruitment Emax % ± SEM,34 ± 3.7%
same,EC50,"Y312W-hKOR [18]; cAMP inhibition, read-out: Gi EC50 Y312W-hKOR",0.16 nM
same,Emax,Y312W-hKOR [18]; read-out: Gi Emax Y312W-hKOR,95 ± 1.8%
